US11414384B2, “P300/CBP hat inhibitors” (Constellation Pharmaceuticals, Inc., priority 2018, dated 2022)
pEC50, pIC50: −log10 of the molar value.

Experiments:
[1] = biological target: p300 HAT domain (residues 1287-1666) (Homo sapiens (Human), UniProt Q09472); assay: p300 HAT SPA assay (scintillation proximity assay, acetylation of biotinylated H3(1-21) peptide); type: biochemical; conditions: p300 HAT domain; average of at least 2 replicate titrations; read-out: P300 HAT SPA IC50
In short: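 Purified p300 HAT domain reaction transferred to streptavidin plates to capture biotinylated H3(1-21) peptide, incubated 1.5 hr at RT, and read by scintillation proximity. IC50 values derived from concentration-response data.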

full length p300 = full length p300 (Homo sapiens (Human), UniProt Q09472); assay: full length p300 SPA assay; type: biochemical; conditions: average of at least 2 replicate titrations, read-out: FL P300 IC50
Chain of full length p300 (Q09472 whole entry): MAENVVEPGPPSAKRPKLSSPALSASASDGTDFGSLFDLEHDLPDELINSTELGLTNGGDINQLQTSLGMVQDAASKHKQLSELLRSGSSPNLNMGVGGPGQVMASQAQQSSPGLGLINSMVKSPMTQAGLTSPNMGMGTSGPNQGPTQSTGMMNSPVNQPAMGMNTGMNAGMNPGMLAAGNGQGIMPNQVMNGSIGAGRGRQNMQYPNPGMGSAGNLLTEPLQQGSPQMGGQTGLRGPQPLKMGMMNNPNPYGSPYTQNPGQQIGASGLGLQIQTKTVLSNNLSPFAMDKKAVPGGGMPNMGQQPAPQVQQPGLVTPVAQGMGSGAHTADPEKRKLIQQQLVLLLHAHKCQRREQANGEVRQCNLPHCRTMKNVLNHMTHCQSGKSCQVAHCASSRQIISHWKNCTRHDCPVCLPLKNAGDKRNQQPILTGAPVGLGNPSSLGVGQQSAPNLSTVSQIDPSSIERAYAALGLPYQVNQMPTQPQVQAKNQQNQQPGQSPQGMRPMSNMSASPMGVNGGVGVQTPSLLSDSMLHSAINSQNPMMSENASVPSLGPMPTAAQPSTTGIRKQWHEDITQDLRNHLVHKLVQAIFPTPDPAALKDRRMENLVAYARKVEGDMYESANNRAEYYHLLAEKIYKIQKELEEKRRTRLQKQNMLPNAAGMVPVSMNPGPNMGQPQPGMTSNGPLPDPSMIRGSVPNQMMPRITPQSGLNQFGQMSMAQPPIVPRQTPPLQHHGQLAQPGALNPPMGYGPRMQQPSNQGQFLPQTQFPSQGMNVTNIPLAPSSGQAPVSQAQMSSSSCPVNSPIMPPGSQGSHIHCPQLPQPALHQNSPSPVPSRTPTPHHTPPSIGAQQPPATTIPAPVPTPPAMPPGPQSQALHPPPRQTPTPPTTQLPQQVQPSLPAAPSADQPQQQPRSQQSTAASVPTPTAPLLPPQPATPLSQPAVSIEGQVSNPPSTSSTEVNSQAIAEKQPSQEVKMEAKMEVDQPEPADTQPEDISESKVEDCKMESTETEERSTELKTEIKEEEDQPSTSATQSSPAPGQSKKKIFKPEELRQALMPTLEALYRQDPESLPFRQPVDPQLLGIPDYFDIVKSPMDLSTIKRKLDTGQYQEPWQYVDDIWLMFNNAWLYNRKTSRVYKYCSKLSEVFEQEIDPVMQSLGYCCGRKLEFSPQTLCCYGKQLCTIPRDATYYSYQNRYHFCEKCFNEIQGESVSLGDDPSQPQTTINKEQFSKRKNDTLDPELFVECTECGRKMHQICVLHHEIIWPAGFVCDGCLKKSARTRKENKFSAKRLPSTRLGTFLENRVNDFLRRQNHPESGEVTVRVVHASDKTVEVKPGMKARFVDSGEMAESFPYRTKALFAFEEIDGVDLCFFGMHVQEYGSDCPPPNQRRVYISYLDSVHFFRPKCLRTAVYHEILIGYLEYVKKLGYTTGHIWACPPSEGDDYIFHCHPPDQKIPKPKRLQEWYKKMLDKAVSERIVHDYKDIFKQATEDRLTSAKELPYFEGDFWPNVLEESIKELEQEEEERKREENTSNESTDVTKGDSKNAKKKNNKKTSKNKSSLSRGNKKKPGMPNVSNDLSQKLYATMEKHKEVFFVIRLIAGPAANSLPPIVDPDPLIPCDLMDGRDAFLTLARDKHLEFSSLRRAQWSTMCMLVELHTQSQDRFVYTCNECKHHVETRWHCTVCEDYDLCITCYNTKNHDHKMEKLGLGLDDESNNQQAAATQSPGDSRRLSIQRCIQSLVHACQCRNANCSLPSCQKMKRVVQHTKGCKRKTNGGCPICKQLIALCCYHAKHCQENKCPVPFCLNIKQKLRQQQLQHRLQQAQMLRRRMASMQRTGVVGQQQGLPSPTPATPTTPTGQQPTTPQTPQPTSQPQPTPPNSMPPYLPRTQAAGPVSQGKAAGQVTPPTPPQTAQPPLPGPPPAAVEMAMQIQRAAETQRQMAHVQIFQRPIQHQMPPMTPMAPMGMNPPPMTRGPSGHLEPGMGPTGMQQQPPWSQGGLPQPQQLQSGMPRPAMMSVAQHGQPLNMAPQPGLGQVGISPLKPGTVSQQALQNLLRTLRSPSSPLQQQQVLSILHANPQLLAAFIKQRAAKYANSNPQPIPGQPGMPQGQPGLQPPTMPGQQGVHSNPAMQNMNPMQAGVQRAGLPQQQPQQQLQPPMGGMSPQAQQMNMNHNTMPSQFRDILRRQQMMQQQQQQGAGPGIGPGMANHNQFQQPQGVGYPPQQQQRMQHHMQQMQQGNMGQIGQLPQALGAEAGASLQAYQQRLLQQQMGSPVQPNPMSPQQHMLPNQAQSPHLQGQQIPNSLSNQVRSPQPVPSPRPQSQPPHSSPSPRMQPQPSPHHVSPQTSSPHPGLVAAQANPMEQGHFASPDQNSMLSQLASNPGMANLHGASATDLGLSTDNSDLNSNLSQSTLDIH

[2] = system: acetylation of chromatin at H3K18 (catalyzed by p300 and CBP) in HCT-116 cells; assay: H3K18Ac MSD cellular assay; type: cell-based; conditions: 2 hr treatment, average of at least 2 replicate titrations
In short: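 HCT-116 cells plated overnight in RPMI + 10% FBS, treated with compound for 2 h at 37 °C, then lysed. H3K18ac measured by MSD sandwich immunoassay: total-histone capture antibody, anti-H3K18ac detection, Sulfo-Tag anti-rabbit electrochemiluminescence read.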

Chain of p300 HAT domain (residues 1287-1666) (Q09472 1287-1666): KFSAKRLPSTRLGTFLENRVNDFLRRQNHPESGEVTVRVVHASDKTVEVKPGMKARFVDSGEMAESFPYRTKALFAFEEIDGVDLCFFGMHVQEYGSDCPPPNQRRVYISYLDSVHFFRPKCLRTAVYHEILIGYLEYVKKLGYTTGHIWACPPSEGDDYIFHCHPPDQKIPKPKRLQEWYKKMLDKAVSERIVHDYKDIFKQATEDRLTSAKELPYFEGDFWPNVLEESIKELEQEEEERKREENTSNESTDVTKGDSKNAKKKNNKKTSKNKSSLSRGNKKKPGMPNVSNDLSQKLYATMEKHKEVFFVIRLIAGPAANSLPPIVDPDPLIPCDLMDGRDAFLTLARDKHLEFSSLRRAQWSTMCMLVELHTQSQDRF

Row | SMILES | pIC50 [1] | pIC50 (full length p300) | pEC50 [2] | pEC50 ([2]; Homo sapiens, HCT-116, 2 h)
1 | O=C(c1c[nH]c2cc(-c3ccncc3)ccc12)C(NCCc1ccc(F)cc1)c1ccccc1 (single isomer, unassigned) [82 Isomer 2] | 6.06 | 7.74 | 6.89 | –
2 | CNC(=O)Cn1cc(-c2ccc3c(C(=O)C(NCCc4ccc(Cl)cc4)c4ccccc4)c[nH]c3c2)cn1 (single isomer, unassigned) [87 Isomer 2] | 6.70 | 7.94 | – | 6.95
3 | CC(CNC(C(=O)c1cnn2cc(-c3cnn(C)c3)ccc12)c1ccccc1)c1ccc(C#N)cc1 (single isomer, unassigned) [102 Isomer 4] | 8.03 | 9.09 | – | 7.37
4 | O=C(c1c[nH]c2cc(-n3ccnc3)ccc12)C(NCCc1ccc(F)cc1)c1ccccc1 (single isomer, unassigned) [117 Isomer 1] | 6.08 | 7.85 | – | 6.79
5 | O=C(c1c[nH]c2cc(-n3cccn3)ccc12)C(NCCc1ccc(F)cc1)c1ccccc1 (single isomer, unassigned) [118 Isomer 2] | 5.58 | 7.09 | – | 6.05
6 | CN1CCN(c2ccc3c(C(=O)C(NCCc4ccc(F)cc4)c4ccccc4)c[nH]c3c2)CC1 (single isomer, unassigned) [123 Isomer 2] | 6.09 | 7.91 | – | 6.67
7 | CN1CCC(Oc2ccc3c(C(=O)C(NCCc4ccc(C#N)cc4)c4ccccc4)c[nH]c3c2)CC1 (single isomer, unassigned) [126 Isomer 2] | 7.44 | 8.66 | – | 6.81
8 | O=C(O)c1ccc(CCNC(C(=O)c2c[nH]c3ccccc23)c2ccccc2)cc1 (single isomer, unassigned) [132 Isomer 1] | 5.74 | 7.20 | – | 5.35
9 | NC(=O)c1ccc(CCNC(C(=O)c2c[nH]c3ccccc23)c2ccccc2)cc1 (single isomer, unassigned) [133 Isomer 2] | 5.67 | 7.00 | – | 5.84
10 | CNC(=O)c1ccc(CCNC(C(=O)c2c[nH]c3ccccc23)c2ccccc2)cc1 (single isomer, unassigned) [134 Isomer 2] | 5.29 | 6.82 | – | 5.80
11 | CCNC(=O)c1ccc2c(C(=O)[C@@H](NCCc3ccc(C#N)cc3)c3ccccc3)c[nH]c2c1 (single isomer, unassigned) [146 Isomer 2] | 7.59 | 7.85 | 7.44 | –
12 | CN(C)C(=O)c1ccc2c(C(=O)C(NCCc3ccc(Cl)cc3Cl)c3ccccc3)c[nH]c2c1 (single isomer, unassigned) [152 Isomer 2] | 5.90 | 7.54 | – | 6.49
13 | N#Cc1ccc(CCNC(C(=O)c2c[nH]c3cc(C(=O)O)ccc23)c2ccccc2)cc1 (single isomer, unassigned) [155 Isomer 1] | 5.65 | 7.11 | – | 4.78
14 | CNC(=O)c1ccc2c(C(=O)C(NCCc3ccc(C#N)cc3)c3ccccc3)c[nH]c2c1 (single isomer, unassigned) [156 Isomer 2] | 7.77 | > 8.70 | – | 7.33
